Each structure is given as a SMILES string. Active and inactive are the calls of the source. The calls are words filed in the database; no cut-off is given here.

Series [1] concerns the target T1, Cystathionine gamma-lyase (Homo sapiens, UniProt P32929). The series is described as follows: Inhibition of human CSE using L-Cys as the substrate in presence of 0.01% Triton X-100 by tandem well based HTS assay.
In another series the test system is RAW264.7. Kind of series: Toxicity in mouse RAW264.7 cells assessed as cell viability up to 100 uM incubated for 12 to 24 hrs by CellTiter96 aqueous one solution cell proliferation assay. The class given is cell-based. The settings on record: time 12-24 hrs.
The target in series [2] is Cystathionine gamma-lyase (Mus musculus, UniProt Q8VCN5). Kind of series: (§1) Inhibition of CSE in mouse RAW264.7 cells assessed as reduction in endogenous H2S level by AzMC probe based fluorescence assay. It is filed as cell-based.
Series [3] concerns the target Cystathionine gamma-lyase (Mus musculus) (UniProt Q8VCN5). The series is described as §1. The class given is cell-based.
Series [4] has as its target T1, Cystathionine gamma-lyase. The series is described as follows: Inhibition of human CSE using L-Cys as the substrate in presence of 0.025% Triton X-100 by tandem well based HTS assay.
In series [5] the target is Cystathionine gamma-lyase (Homo sapiens, UniProt P32929, R119A). Kind of series: Inhibition of human CSE R119A mutant expressed in HEK293T cells assessed as reduction in H2S contents. The class given is cell-based.
Series [6] addresses Cystathionine gamma-lyase (Homo sapiens, UniProt P32929, Y114F). The series is described as follows: Inhibition of human CSE Y114F mutant expressed in HEK293T cells assessed as reduction in H2S contents. The class given is cell-based.
Series [7] deals with Cystathionine gamma-lyase (Homo sapiens, UniProt P32929, R119K). The series is described as follows: Inhibition of human CSE R119K mutant expressed in HEK293T cells assessed as reduction in H2S contents. It is filed as cell-based.
For series [8], the target named is T1, Cystathionine gamma-lyase. Kind of series: Non-covalent reversible inhibition of human CSE.
For series [9], the target named is T2, Cystathionine beta-synthase (Homo sapiens, UniProt P35520).
T2 sequence (P35520 whole entry): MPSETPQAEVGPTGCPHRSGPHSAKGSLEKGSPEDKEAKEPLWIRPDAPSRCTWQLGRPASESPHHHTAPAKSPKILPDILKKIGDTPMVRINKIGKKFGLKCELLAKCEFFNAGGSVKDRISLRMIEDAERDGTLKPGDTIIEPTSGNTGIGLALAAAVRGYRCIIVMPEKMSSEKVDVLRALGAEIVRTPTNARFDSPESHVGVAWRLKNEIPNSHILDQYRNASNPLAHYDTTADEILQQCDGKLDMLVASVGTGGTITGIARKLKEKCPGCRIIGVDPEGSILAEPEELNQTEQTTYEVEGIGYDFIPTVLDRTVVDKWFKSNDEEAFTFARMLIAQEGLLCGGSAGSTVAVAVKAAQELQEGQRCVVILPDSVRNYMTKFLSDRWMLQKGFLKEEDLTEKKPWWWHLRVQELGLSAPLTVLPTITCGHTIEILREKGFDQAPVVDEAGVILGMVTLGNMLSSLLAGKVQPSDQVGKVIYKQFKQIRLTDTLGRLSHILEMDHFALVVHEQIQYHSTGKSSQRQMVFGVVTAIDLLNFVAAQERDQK
The series is described as follows: Inhibition of wild type human CBS expressed in HEK293T cells assessed as reduction in H2S contents. It is filed as cell-based.

The target of series [10] is T1, Cystathionine gamma-lyase. Kind of series: Inhibition of human CSE expressed in HEK293T cells assessed as reduction in H2S contents at 20 to 50 uM by lead acetate assay. The class given is cell-based. The settings on record: dose 20-50 µM.
In series [11] the test system is Cystathionine gamma-lyase (Homo sapiens), P32929 [Y114F]. The series is described as follows: Inhibition of human CSE Y114F mutant expressed in HEK293T cells assessed as reduction in H2S contents at 200 to 500 uM by lead acetate assay. The class given is cell-based. The settings on record: dose 200-500 µM.
Chain of Cystathionine gamma-lyase (Homo sapiens), P32929 [Y114F] (P32929 whole entry Y114F): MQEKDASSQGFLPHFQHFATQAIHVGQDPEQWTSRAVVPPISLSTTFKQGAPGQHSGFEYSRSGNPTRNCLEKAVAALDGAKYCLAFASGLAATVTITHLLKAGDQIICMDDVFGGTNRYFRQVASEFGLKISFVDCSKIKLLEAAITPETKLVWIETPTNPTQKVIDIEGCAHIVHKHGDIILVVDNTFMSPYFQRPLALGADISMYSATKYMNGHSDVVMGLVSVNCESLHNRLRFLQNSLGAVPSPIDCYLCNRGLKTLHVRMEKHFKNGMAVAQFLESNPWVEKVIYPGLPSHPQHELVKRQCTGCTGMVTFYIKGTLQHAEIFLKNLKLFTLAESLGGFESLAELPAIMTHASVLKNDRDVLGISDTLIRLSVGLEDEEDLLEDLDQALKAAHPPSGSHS

T1 sequence (P32929 whole entry): as the sequence (P32929 whole entry Y114F) above, with F114Y counted along it
Chain of Cystathionine gamma-lyase (Homo sapiens, UniProt P32929, R119A) (P32929 whole entry R119A): as the sequence (P32929 whole entry Y114F) above, with F114Y, R119A counted along it
Chain of Cystathionine gamma-lyase (Homo sapiens, UniProt P32929, Y114F) (P32929 whole entry Y114F): as the sequence (P32929 whole entry Y114F) above
Chain of Cystathionine gamma-lyase (Mus musculus) (Q8VCN5 whole entry): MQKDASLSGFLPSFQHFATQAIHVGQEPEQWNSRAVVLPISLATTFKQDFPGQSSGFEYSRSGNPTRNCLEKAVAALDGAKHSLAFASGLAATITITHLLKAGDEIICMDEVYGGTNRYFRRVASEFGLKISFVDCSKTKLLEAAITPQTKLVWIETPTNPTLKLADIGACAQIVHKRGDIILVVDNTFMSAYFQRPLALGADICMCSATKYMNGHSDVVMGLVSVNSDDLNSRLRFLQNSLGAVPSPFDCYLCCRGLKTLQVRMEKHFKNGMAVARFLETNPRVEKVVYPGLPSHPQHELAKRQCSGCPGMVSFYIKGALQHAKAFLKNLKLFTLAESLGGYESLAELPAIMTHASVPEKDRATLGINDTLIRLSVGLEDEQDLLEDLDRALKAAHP
Chain of Cystathionine gamma-lyase (Mus musculus, UniProt Q8VCN5) (Q8VCN5 whole entry): as above
Chain of Cystathionine gamma-lyase (Homo sapiens, UniProt P32929, R119K) (P32929 whole entry R119K): as the sequence (P32929 whole entry Y114F) above, with F114Y, R119K counted along it

Consider `O=C(O)C1=CC(=C(c2ccc(O)c(C(=O)O)c2)c2ccc(O)c(C(=O)O)c2)C=CC1=O` [AURINTRICARBOXYLIC ACID], for which the half-inhibitory concentration (IC50) in series [1] is 1.8 µM; in [2] it was 43.2 µM; in [4] it was 1.8 µM; in [5], 371 µM; in [6] it was 283 µM; in series [7], 245 µM. Further, the half-maximal inhibitory concentration (IC50) in [9] was above 650 µM. Moreover, in the series with RAW264.7, the Activity entry is reported as “Non-Toxic”. In series [3], the inhibition entry was “Dose-dependent effect”. In addition, the inhibition entry in series [8] and in series [10] was “Active” in each case. Also, in series [11], the inhibition result is “inactive”.

For orientation: IC50 means the midpoint of a concentration-inhibition curve.

For the origin of these results see ChEMBL document CHEMBL4673222, “Discovery of a Bioactive Inhibitor with a New Scaffold for Cystathionine γ-Lyase” (J Med Chem, 2019).
